Assay results reported in patent US11142527B2, “Dihydropyrimidine compounds and uses thereof in medicine” (SUNSHINE LAKE PHARMA CO., LTD., priority 2017, dated 2021).

Key:
HBV = assay: Test of anti HBV activity in vitro (viral DNA by qPCR); assay type: cell-based; conditions: Hepatitis B virus; HepG2.2.15 cells, viral DNA in cell culture supernatant by qPCR; read-out: EC50 values of the compound of the invention on viral replication
Procedure, shortened: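 HepG2.2.15 cells (integrated HBV genome) were grown to confluence, then treated with compound in 4-fold dilutions from 4 μM final (0.5% DMSO). Secreted viral DNA in supernatant was quantified by SYBR qPCR against an HBV plasmid standard curve; EC50 from four-parameter nonlinear regression of concentration versus copy number.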

[1] = Cytotoxicity test with CellTiter Glo; assay type: cell-based; conditions: human, HepG2.2.15 cells, highest concentration 150 μM, read-out: CC50 values of the compounds of the invention
Experimental: Test 2: Cytotoxicity and Selectivity Index
Methods of Testing Cytotoxicity and Selectivity Index
The serial diluted compound was added to a 384 wells plate at 50 μL HepG2.2.15 cell per well (3000 cells per well), the highest final concentration in the experiment is 150 μM (200 fold dilution). The plate was cultured at 37° C. in an incubator with CO2 for 4 days, and cytotoxicity of the compound was detected using CellTiter Glo agent.
The cytotoxicity of the compound was calculated using the following formulate, cytotoxicity (%)=100−(detection value/mean of DMSO control wells values×100) CC50 values were calculated by a four parametric nonlinear regression model using Graphpad Prism 5 software to manage concentration−cytotoxicity (%).

Structure (SMILES): COC(=O)C1=C(CN2CCN3C(=O)N(c4nc(-c5ccc(C(C)(C)C(=O)O)cc5)cs4)C[C@@H]3C2)NC(c2nccs2)=N[C@H]1c1ccc(F)cc1Cl [Example 17, 2-(4-(2-((S)-7-(((R)-6-(2-chloro-4-fluorophenyl)-5-(methoxycarbonyl)-2-(thiazol-2-yl)-3,6-dihydropyrimidin-4-yl)methyl)-3-oxohexahydroimidazo[1,5-a]pyrazin-2(3H)-yl)thiazol-4-yl)phenyl)-2-methylpropionic acid]
- EC50 (HBV): 6 nM
- CC50 at 4 days [1]: > 150000 nM

Structure (SMILES): COC(=O)C1=C(CN2CCN3C(=O)N(c4ccc(-c5ccc(C(C)(C)C(=O)O)cc5)cn4)C[C@@H]3C2)NC(c2nccs2)=N[C@H]1c1ccc(F)cc1Cl [Example 19, 2-(4-(6-((S)-7-(((R)-6-(2-chloro-4-fluorophenyl)-5-(methoxycarbonyl)-2-(thiazol-2-yl)-3,6-dihydropyrimidin-4-yl)methyl)-3-oxohexahydroimidazo[1,5-a]pyrazin-2(3H)-yl)pyridin-3-yl)phenyl)-2-methylpropionic acid]
- EC50 (HBV): 14 nM
- CC50 at 4 days [1]: > 150000 nM

Structure (SMILES): COC(=O)C1=C(CN2CCN3C(=O)N(c4ccc(N5CCO[C@H](CCC(=O)O)C5)cc4)C[C@@H]3C2)NC(c2nccs2)=N[C@H]1c1ccc(F)cc1Cl [Example 20, 3-((R)-4-(4-((S)-7-(((R)-6-(2-chloro-4-fluorophenyl)-5-(methoxycarbonyl)-2-(thiazol-2-yl)-3,6-dihydropyrimidin-4-yl)methyl)-3-oxohexahydroimidazo[1,5-a]pyrazin-2(3H)-yl)phenyl)morpholin-2-yl)propionic acid]
- EC50 (HBV): 4 nM
- CC50 at 4 days [1]: > 150000 nM

Structure (SMILES): COC(=O)C1=C(CN2CCN3C(=O)N(c4ccc(Oc5ccc(C(=O)O)cc5F)cn4)C[C@@H]3C2)NC(c2nccs2)=N[C@H]1c1ccc(F)cc1Cl [Example 22, 4-((6-((S)-7-(((R)-6-(2-chloro-4-fluorophenyl)-5-(methoxycarbonyl)-2-(thiazol-2-yl)-3,6-dihydropyrimidin-4-yl)methyl)-3-oxohexahydroimidazo[1,5-a]pyrazin-2(3H)-yl)pyridin-3-yl)oxy)-3-fluorobenzoic acid]
- EC50 (HBV): 18 nM
- CC50 at 4 days [1]: > 150000 nM

Structure (SMILES): COC(=O)C1=C(CN2CCN3C(=O)N(c4cc(F)cc(OC5CCC(C(=O)O)CC5)c4)C[C@@H]3C2)NC(c2nccs2)=N[C@H]1c1ccc(F)cc1Cl (stereo partly drawn) [Example 23, 4-(3-((S)-7-(((R)-6-(2-chloro-4-fluorophenyl)-5-(methoxycarbonyl)-2-(thiazol-2-yl)-3,6-dihydropyrimidin-4-yl)methyl)-3-oxohexahydroimidazo[1,5-a]pyrazin-2(3H)-yl)-5-fluorophenoxy)cyclohexane carboxylic acid]
- EC50 (HBV): 7 nM
- CC50 at 4 days [1]: > 150000 nM

Structure (SMILES): COC(=O)C1=C(CN2CCN3C(=O)N(c4ccc(C5(C#N)CC5)cc4)C[C@@H]3C2)NC(c2nccs2)=N[C@H]1c1ccc(F)cc1Cl [Example 26]
- EC50 (HBV): 1 nM
- CC50 at 4 days [1]: > 150000 nM

Structure (SMILES): COC(=O)C1=C(CN2CCN3C(=O)N(c4ccc(N5CCC(C(=O)O)CC5)cc4F)C[C@@H]3C2)NC(c2nccs2)=N[C@H]1c1ccc(F)cc1Cl [Example 31, 1-(4-((S)-7-(((R)-6-(2-chloro-4-fluorophenyl)-5-(methoxycarbonyl)-2-(thiazol-2-yl)-3,6-dihydropyrimidin-4-yl)methyl)-3-oxohexahydroimidazo[1,5-a]pyrazin-2(3H)-yl)-3-fluorophenyl)piperidine-4-carboxylic acid]
- EC50 (HBV): 16 nM
- CC50 at 4 days [1]: > 150000 nM

Structure (SMILES): COC(=O)C1=C(CN2CCN3C(=O)N(c4cc(F)cc(N5CCC(C(=O)O)CC5)c4)C[C@@H]3C2)NC(c2nccs2)=N[C@H]1c1ccc(F)cc1Cl [Example 32, 1-(3-((S)-7-(((R)-6-(2-chloro-4-fluorophenyl)-5-(methoxycarbonyl)-2-(thiazol-2-yl)-3,6-dihydropyrimidin-4-yl)methyl)-3-oxohexahydroimidazo[1,5-a]pyrazin-2(3H)-yl)-5-fluorophenyl)piperidine-4-carboxylic acid]
- EC50 (HBV): 6 nM
- CC50 at 4 days [1]: > 150000 nM

Structure (SMILES): COC(=O)C1=C(CN2CCN3C(=O)N(c4ccc(-c5ccc(C(=O)O)cc5F)c(F)c4)C[C@@H]3C2)NC(c2nccs2)=N[C@H]1c1ccc(F)cc1Cl [Example 33, 4′-((S)-7-(((R)-6-(2-chloro-4-fluorophenyl)-5-(methoxycarbonyl)-2-(thiazol-2-yl)-3,6-dihydropyrimidin-4-yl)methyl)-3-oxohexahydroimidazo[1,5-a]pyrazin-2(3H)-yl)-2,2′-difluoro-[1,1′-diphenyl]-4-carboxylic acid]
- EC50 (HBV): 7 nM
- CC50 at 4 days [1]: > 150000 nM

Structure (SMILES): COC(=O)C1=C(CN2CCN3C(=O)N(c4ccc(-c5ccc(C(=O)O)c(F)c5)c(F)c4)C[C@@H]3C2)NC(c2nccs2)=N[C@H]1c1ccc(F)cc1Cl [Example 34, 4′-((S)-7-(((R)-6-(2-chloro-4-fluorophenyl)-5-(methoxycarbonyl)-2-(thiazol-2-yl)-3,6-dihydropyrimidin-4-yl)methyl)-3-oxohexahydroimidazo[1,5-a]pyrazin-2(3H)-yl)-2′,3-difluoro-[1,1′-diphenyl]-4-carboxylic acid]
- EC50 (HBV): 7 nM
- CC50 at 4 days [1]: > 150000 nM

Structure (SMILES): COC(=O)C1=C(CN2CCN3C(=O)N(c4ccc(-c5ccc(C(=O)O)cc5)c(F)c4)C[C@@H]3C2)NC(c2nccs2)=N[C@H]1c1ccc(F)cc1Cl [Example 35, 4′-((S)-7-(((R)-6-(2-chloro-4-fluorophenyl)-5-(methoxycarbonyl)-2-(thiazol-2-yl)-3,6-dihydropyrimidin-4-yl)methyl)-3-oxohexahydroimidazo[1,5-a]pyrazin-2(3H)-yl)-2′-fluoro-[1,1′-diphenyl]-4-carboxylic acid]
- EC50 (HBV): 7 nM
- CC50 at 4 days [1]: > 150000 nM

Structure (SMILES): COC(=O)C1=C(CN2CCN3C(=O)N(c4nc(-c5ccc(CC(C)(C)C(=O)O)cc5)cs4)C[C@@H]3C2)NC(c2nccs2)=N[C@H]1c1ccc(F)cc1Cl [Example 36, 3-(4-(2-((S)-7-(((R)-6-(2-chloro-4-fluorophenyl)-5-(methoxycarbonyl)-2-(thiazol-2-yl)-3,6-dihydropyrimidin-4-yl)methyl)-3-oxohexahydroimidazo[1,5-a]pyrazin-2(3H)-yl)thiazol-4-yl)phenyl)-2,2-dimethylprop ionic acid]
- EC50 (HBV): 22 nM
- CC50 at 4 days [1]: > 150000 nM

Structure (SMILES): COC(=O)C1=C(CN2CCN3C(=O)N(CC#Cc4ccc(CO)cc4)C[C@@H]3C2)NC(c2nccs2)=N[C@H]1c1ccc(F)cc1Cl [Example 37, (R)-methyl 4-(2-chloro-4-fluorophenyl)-6-(((S)-2-(3-(4-(hydroxymethyl)phenyl)prop-2-yn-1-yl)-3-oxohexahydroimidazo[1,5-a]pyrazin-7(1H)-yl)methyl)-2-(thiazol-2-yl)-1,4-dihydropyrimidine-5-carboxylate]
- EC50 (HBV): 12.1 nM
- CC50 at 4 days [1]: > 150000 nM

Structure (SMILES): COC(=O)C1=C(CN2CCN3C(=O)N(CC#Cc4ccc(C(C)(C)O)cc4)C[C@@H]3C2)NC(c2nccs2)=N[C@H]1c1ccc(F)cc1Cl [Example 38, (R)-methyl 4-(2-chloro-4-fluorophenyl)-6-(((S)-2-(3-(4-(2-hydroxyprop-2-yl)phenyl)-2-propyn-1-yl)-3-oxohexahydroimidazo[1,5-a]pyrazin-7(1H)-yl)methyl)-2-(thiazol-2-yl)-1,4-dihydropyrimidine-5-carboxylate]
- EC50 (HBV): 7.1 nM
- CC50 at 4 days [1]: > 150000 nM

Structure (SMILES): COC(=O)C1=C(CN2CCN3C(=O)N(CC#Cc4ccc(S(C)(=O)=O)cc4)C[C@@H]3C2)NC(c2nccs2)=N[C@H]1c1ccc(F)cc1Cl [Example 41, (R)-methyl 4-(2-chloro-4-fluorophenyl)-6-(((S)-2-(3-(4-(methylsulfonyl)phenyl)-2-propyn-1-yl)-3-oxohexahydroimidazo[1,5-a]pyrazin-7(1H)-yl)methyl)-2-(thiazol-2-yl)-1,4-dihydropyrimidine-5-carboxylate]
- EC50 (HBV): 5.1 nM
- CC50 at 4 days [1]: > 150000 nM

Structure (SMILES): COC(=O)C1=C(CN2CCN3C(=O)N(c4ccc(Oc5ccc(C(=O)NCC(C)(C)C(=O)O)cc5)cc4)C[C@@H]3C2)NC(c2nccs2)=N[C@H]1c1ccc(F)cc1Cl [Example 75, 3-(4-(4-((S)-7-(((R)-6-(2-chloro-4-fluorophenyl)-5-(methoxycarbonyl)-2-(thiazol-2-yl)-3,6-dihydropyrimidin-4-yl)methyl)-3-oxohexahydroimidazo[1,5-a]pyrazin-2(3H)-yl)phenoxy)benzamido)-2,2-dimethylpropanoic acid]
- CC50 at 4 days [1]: > 150000 nM

Structure (SMILES): COC(=O)C1=C(CN2CCN3C(=O)N(c4cncc(Oc5ccc(C(=O)O)cc5F)c4)C[C@@H]3C2)NC(c2nccs2)=N[C@H]1c1ccc(F)cc1Cl [Example 81, 4-((5-((S)-7-(((R)-6-(2-chloro-4-fluorophenyl)-5-(methoxycarbonyl)-2-(thiazol-2-yl)-3,6-dihydropyrimidin-4-yl)methyl)-3-oxohexahydroimidazo[1,5-a]pyrazin-2(3H)-yl)pyridin-3-yl)oxy)-3-fluorobenzoic acid]
- CC50 at 4 days [1]: > 150000 nM

Structure (SMILES): COC(=O)C1=C(CN2CCN3C(=O)N(c4ccc(Oc5ccc(OCC(F)(F)F)cc5)cc4)C[C@@H]3C2)NC(c2nccs2)=N[C@H]1c1ccc(F)cc1Cl [Example 104, (R)-methyl 4-(2-chloro-4-fluorophenyl)-6-(((S)-3-oxo-2-(4-(4-(2,2,2-trifluoroethoxy)phenoxy)phenyl)hexahydroimidazo[1,5-a]pyrazin-7(1H)-yl)methyl)-2-(thiazol-2-yl)-1,4-dihydropyrimidine-5-carboxylate]
- CC50 at 4 days [1]: > 150000 nM
